{
  "source": "patent US20070219208A1",
  "about": "“Methods for Treating Cancer” (priority 2006, published 2007)",
  "key": {"[1]": {"tested_on": "MCF-7 cells", "experiment": "Apoptosis by TUNEL assay", "assay_type": "cell-based", "settings": "with simvastatin or fluvastatin 5-10 μM, 48 h; 1400 W 10 μM, sepiapterin 50 μM, mevalonate 20 μM", "description": "Measurement of Apoptosis by TUNEL Assay:\nThe terminal deoxynucleotidyl transferase-mediated nick-end labeling (TUNEL) assay was used for microscopic detection of apoptosis (Kotamraju S, et al. J Biol Chem, 277:17179-87, 2002). This assay is based on labeling of 3′ free hydroxyl ends of the fragmented DNA with fluorescein-dUTP catalyzed by terminal deoxynucleotidyl transferase. Procedures were followed according to a commercially available kit (ApoAlert) from Clontech. […] The apoptotic cells were detected by fluorescence microscopy equipped with rhodamine and FITC filters. The quantification of apoptosis was performed using the Metamorph image analysis package.\nUnder these conditions, NO2^−/NO3^− levels were decreased (FIG. 4B). […] Further verification that iNOS is involved in […] NO was obtained from inhibition of geranylgeranylation and farnesylation. […] In contrast, FTI-277 (farnesylation inhibitor) and sepiapterin had no effect on NO2^−/NO3^− levels (FIG. 4C). […] In the TUNEL assay, cells were treated with simvastatin or fluvastatin (5-10 μM) for 48 h in the presence or absence of 1400 W (10 μM), sepiapterin (50 μM) or mevalonate (20 μM) and stained for TUNEL-positive cells as an index of DNA fragmentation monitored by fluorescence microscopy (original magnification, ×100). Photographs were taken for the overlaid images of propidium iodide-and FITC-stained cells (TUNEL-positive cells). Yellow and red denote apoptotic and nonapoptotic cells, respectively. We observed that the TUNEL positive staining was enhanced in statin-treated MCF-7 cells. […] Pretreatment with 1400 W or mevalonate caused a decrease in the TUNEL positive cells."}, "[2]": {"tested_on": "MCF-7 cells", "experiment": "3H-thymidine uptake (DNA synthesis / cell proliferation)", "assay_type": "cell-based", "settings": "mevalonate 20 μM with simvastatin or fluvastatin", "protocol": "Thymidine Uptake Studies:\nDNA synthesis was measured by monitoring the uptake of tritiated thymidine, [^3H]TdR (Perkin-Elmer, Boston, Mass.). Cells (5×10^5/ml) were cultured with different concentrations of simvastatin or fluvastatin (0-10 μM) in the presence or absence of mevalonate (20 μM), 1400 W, or sepiapterin. Cells were pulse-chased with [^3H]TdR [0.5 μCi (0.185 MBq)/well during the last 3 h of a 24 h culture, harvested onto glass filters with an automatic cell harvester (Cambridge Technology, Cambridge, Mass.), and counted using the LKB Betaplate scintillation counter (Wallac, Gaithersburg, Md.). All experiments were performed in triplicate and repeated three times."}, "[3]": {"tested_on": "arginase II in MCF-7 cells", "experiment": "Arginase II transcript levels by RT-PCR", "assay_type": "cell-based", "settings": "mevalonate 20 μM", "protocol": "Following the treatments, medium was aspirated and 1 ml of TRIzol reagent (Invitrogen) was added and total RNA was extracted using the manufacturer's protocol. Five μg of RNA was used for the first strand cDNA synthesis using a first strand cDNA synthesis kit (Amersham Biosciences). Four μl of the cDNA mixture was used to amplify mRNA's of iNOS [(5′-[…]-3′, SEQ ID NO:1) and (5′-[…]-3′, SEQ ID NO:2)], arginase I [(5′-[…]-3′, SEQ ID NO:3) and (5′-[…]-3′, SEQ ID NO:4)], arginase II [(5′-[…]-3′, SEQ ID NO:5) and (5′-[…]-3′, SEQ ID NO:6)], and eNOS [(5′-[…]-3′, SEQ ID NO:7) and (5′-[…]-3′, SEQ ID NO:8)]."}, "[4]": {"tested_on": "MCF-7 breast cancer cells", "experiment": "MTT reduction cytotoxicity assay in MCF-7 cells", "settings": "pretreatment before simvastatin or fluvastatin (10 μM), 48 h; mevalonate 20 μM, 1400 W 10 μM", "protocol": "MTT Reduction Cytotoxicity Assay:\nMTT is taken up by cells and is reduced to a colored formazon product that can be detected by spectrophotometry (max=562 nm). Reduction of MTT is dependent upon the mitochondrial respiratory function, and thus measures the relative number of viable cells in the culture. After the treatment was completed, MCF-7 cells were washed twice with DPBS and taken in a ml of MEM without FBS and incubated with 5 mg/ml MTT solution for 1 h at 37° C. Medium was removed and cells were solubilized in DMSO. The absorption was measured at 562 nm with reference at 630 nm.\nWe assessed the effectiveness of simvastatin and fluvastatin to induce cytotoxicity in MCF-7 cells. MCF-7 breast cancer cells were treated with fluvastatin or simvastatin at different concentrations (0.5-20 μM) for 24-48 h. The changes in the number of viable cells were determined using the MTT assay that monitors the intracellular conversion of MTT to formazon spectrophotometrically max=562 nm)."}},
  "data": [
    {"smiles": "CC(O)(CCO)CC(=O)O", "note": "(stereo not shown) [mevalonate]", "values": [
      {"measurement": "effect on statin-induced TUNEL-positive cells (proapoptotic effect)", "setting": "[1]", "value": "decrease"},
      {"measurement": "effect on statin inhibition of 3H-thymidine uptake", "setting": "[2]", "value": "partially reversed"},
      {"measurement": "effect on statin-induced down-regulation of Arg II level", "setting": "[3]", "value": "reversed"},
      {"measurement": "effect on statin-induced MCF-7 cell cytotoxicity (MTT assay)", "setting": "[4]", "value": "significantly reversed"}
    ]}
  ]
}
